Measurements published in ChEMBL document CHEMBL1124733, “Synthesis and cardiac electrophysiological activity of N-substituted-4-(1H-imidazol-1-yl)benzamides--new selective class III agents” (J Med Chem, 1990).
Values joined by “and” are separate entries in the source; they are usually repeats but may differ in a detail not shown here. Equal values may be shown once.

How the values were obtained:
[1] = Percent change in the Vmax at a 10 uM concentration of the test compound; assay type: ADME
[2] = Maximum observed percent change in Vmax and the concentration at which it was observed was determined at 100 uM; assay type: ADME
[3] = Maximum observed percent change in Vmax and the concentration at which it was observed was determined at 100 uM; Minimal; assay type: ADME
Canis familiaris [4] = organism: Canis familiaris; experiment: Concentration which caused a 20% increase in AP95 was determined.; assay type: functional, Canis lupus familiaris
Canis familiaris [5] = organism: Canis familiaris; experiment: Maximum observed percent change in action potential duration (APD) at 95% repolarization at 100 uM using standard microelectrode technique in isolated canine cardiac Purkinje fibers; assay type: functional, Canis lupus familiaris, Purkinje fiber
Canis familiaris [6] = organism: Canis familiaris; experiment: Percent change in action potential duration at 95% repolarization and 10 uM in isolated canine cardiac Purkinje fibres.; assay type: functional, Canis lupus familiaris, Purkinje fiber
[7] = Percent change in the Vmax at a 10 uM concentration of the test compound; Minimal; assay type: ADME
[8] = Maximum observed percent change in Vmax and the concentration at which it was observed was determined; Minimal; assay type: ADME
Canis familiaris [9] = organism: Canis familiaris; experiment: Concentration which caused a 20% increase in AP95 was determined.; Not reached; assay type: functional; conditions: Canis lupus familiaris
Canis familiaris [10] = organism: Canis familiaris; experiment: Maximum observed percent change in action potential duration (APD) at 95% repolarization at 10 uM using standard microelectrode technique in isolated canine cardiac Purkinje fibers; assay type: functional, Canis lupus familiaris, Purkinje fiber
[11] = Maximum observed percent change in Vmax and the concentration at which it was observed was determined at 50 uM; Minimal; assay type: ADME
[12] = Maximum observed percent change in Vmax and the concentration at which it was observed was determined at 30 uM; Minimal; assay type: ADME
Canis familiaris [13] = organism: Canis familiaris; experiment: Maximum observed percent change in action potential duration (APD) at 95% repolarization at 1 uM using standard microelectrode technique in isolated canine cardiac Purkinje fibers; assay type: functional, Canis lupus familiaris, Purkinje fiber
Canis familiaris [14] = organism: Canis familiaris; experiment: Maximum observed percent change in action potential duration (APD) at 95% repolarization at 30 uM using standard microelectrode technique in isolated canine cardiac Purkinje fibers; assay type: functional, Canis lupus familiaris, Purkinje fiber
[15] = Maximum observed percent change in Vmax and the concentration at which it was observed was determined at 10 uM; assay type: ADME
Canis familiaris [16] = experiment: Percent change in heart rate from control at 10 mg/kg, id; assay type: functional, Canis lupus familiaris; conditions: route intraduodenal
Canis familiaris [17] = experiment: Percent change in heart rate from control at 3 mg/kg, iv; assay type: functional, Canis lupus familiaris
Canis familiaris [18] = experiment: Percent change in heart rate from control at 30 mg/kg, id; assay type: functional, Canis lupus familiaris; conditions: route intraduodenal
Canis familiaris [19] = experiment: Effective dose with the number of animals in PES efficacy model of anesthetized dog; Not effective in one animal; assay type: functional, Canis lupus familiaris
Canis familiaris [20] = experiment: Effective dose with the number of animals in PES efficacy model of conscious dog; Not effective in one animal; assay type: functional, Canis lupus familiaris
Canis familiaris [21] = experiment: In vivo electrophysiology was given as change in Function refractory period at 10 mg/kg, id; assay type: functional, Canis lupus familiaris; conditions: route intraduodenal
Canis familiaris [22] = experiment: In vivo electrophysiology was given as change in Function refractory period at 3 mg/kg, iv; assay type: functional, Canis lupus familiaris
Canis familiaris [23] = experiment: In vivo electrophysiology was given as change in Function refractory period at 30 mg/kg, id; assay type: functional, Canis lupus familiaris; conditions: route intraduodenal
Canis familiaris [24] = experiment: Number of animals in which sustained ventricular tachycardia or ventricular fibrillation was not inducible after drug administration among the number of animals tested (5) in PES efficacy model of anesthetized dog; assay type: functional, Canis lupus familiaris, Cardiac ventricle
Canis familiaris [25] = experiment: Number of animals in which sustained ventricular tachycardia or ventricular fibrillation was not inducible after drug administration among the number of animals tested (9) in PES efficacy model of anesthetized dog; assay type: functional, Canis lupus familiaris, Cardiac ventricle
Canis familiaris [26] = organism: Canis familiaris; experiment: Concentration which caused a 20% increase in AP95 was determined. Lowest and highest values given in brackets; not reached; assay type: functional; conditions: Canis lupus familiaris
Canis familiaris [27] = organism: Canis familiaris; experiment: Maximum observed percent change in action potential duration (APD) at 95% repolarization at 3 uM using standard microelectrode technique in isolated canine cardiac Purkinje fibers; assay type: functional, Canis lupus familiaris, Purkinje fiber
[28] = Maximum observed percent change in Vmax and the concentration at which it was observed was determined at M[30] uM; Minimal; assay type: ADME
[29] = Maximum observed percent change in Vmax and the concentration at which it was observed was determined at 10 uM; Minimal; assay type: ADME
Canis familiaris [30] = experiment: Effective dose with the number of animals in PES efficacy model of anesthetized dog; assay type: functional, Canis lupus familiaris
Canis familiaris [31] = experiment: Effective dose with the number of animals in PES efficacy model of conscious dog; assay type: functional, Canis lupus familiaris
Canis familiaris [32] = experiment: Effective dose with the number of animals in PES efficacy model of conscious dog; Not effective in two animals; assay type: functional, Canis lupus familiaris
Canis familiaris [33] = experiment: Number of animals in which sustained ventricular tachycardia or ventricular fibrillation was not inducible after drug administration among the number of animals tested (6) in PES efficacy model of anesthetized dog; assay type: functional, Canis lupus familiaris, Cardiac ventricle
Canis familiaris [34] = experiment: Number of animals in which sustained ventricular tachycardia or ventricular fibrillation was not inducible after drug administration among the number of animals tested (4) in PES efficacy model of anesthetized dog; assay type: functional, Canis lupus familiaris, Cardiac ventricle

SMILES	max Delta Vmax [3]	Delta Vmax [7]	max Delta Vmax [12]	C20 APD95 (Canis familiaris [4])	Max delta APD95 (Canis familiaris [5])	Delta APD95 (Canis familiaris [6])	C20 APD95 (Canis familiaris [9])	Max delta APD95 (Canis familiaris [10])	Max delta APD95 (Canis familiaris [14])	other results
Cl.O=C(NCCNCc1ccccc1)c1ccc(-n2ccnc2)cc1	–	Minimal	–	1.2 µM	59%	41%	–	41%	–	max Delta Vmax [2]: -11%; max Delta Vmax [11]: Minimal
CCN(CC)CCN(C(=O)c1ccc(-n2ccnc2)cc1)c1cccc2ccccc12	–	–	-31%	0.4 µM	–	28%	Not reached	46%	–	Delta Vmax [1]: -14%; Max delta APD95 (Canis familiaris [13]): 39% and 18% and 24%
CCN(CC)CCN(Cc1ccccc1)C(=O)c1ccc(-n2ccnc2)cc1	–	Minimal	Minimal	0.5 µM	–	65%	–	–	65%	–
O=C(NCCN(Cc1ccccc1)Cc1ccccc1)c1ccc(-n2ccnc2)cc1	–	Minimal	Minimal	–	–	6%	Not reached	–	6.5%	–
CCN(CC)[C@H]1CCCCC1NC(=O)c1ccc(-n2ccnc2)cc1.Cl (stereo not given in full)	–	Minimal	–	1.2 µM	85%	60%	–	–	–	Max delta [2]: -46%
CCN(CC)CCNC(=O)c1ccc(-c2ncc[nH]2)cc1.Cl.Cl	–	Minimal	–	65 µM	31%	7%	–	–	–	max Delta Vmax [2]: -14%
CCN(CC)CCNC(=O)c1ccc(NS(C)(=O)=O)cc1.Cl [SEMATILIDE HYDROCHLORIDE]	Minimal	Minimal	Minimal	4.4 µM	65%	31%	–	–	51%	HR (Canis familiaris [16]): -17; HR (Canis familiaris [17]): -23; HR (Canis familiaris [18]): -17; Effective dose (Canis familiaris [19]): 3 mg/kg; Effective dose (Canis familiaris [20]): 10 mg/kg; FRP (Canis familiaris [21]): 15%; FRP (Canis familiaris [22]): 19%; FRP (Canis familiaris [23]): 18%; No. effective (Canis familiaris [24]): 4; No. effective (Canis familiaris [25]): 8
CCN(CC)CCNC(=O)c1ccc(-n2ccnc2C)cc1.CS(=O)(=O)O	Minimal	Minimal	–	–	16%	4%	Not reached	13%	–	max Delta Vmax [28]: Minimal
CCN(CC)CCCNC(=O)c1ccc(-n2ccnc2)cc1.Cl.Cl	–	–	–	3 µM	–	40%	–	–	48%	–
CCN(CC)CCNC(=O)c1ccc(-n2ccnc2)cc1.Cl.Cl	Minimal	Minimal	Minimal	2.9 µM	56%	34%	–	–	52.5%	HR (Canis familiaris [16]): -15; HR (Canis familiaris [17]): -18; HR (Canis familiaris [18]): -29; Effective dose (Canis familiaris [30]): 1 mg/kg; Effective dose (Canis familiaris [19]): 10 mg/kg; Effective dose (Canis familiaris [31]): 0.3 mg/kg; Effective dose (Canis familiaris [32]): 3 mg/kg; FRP (Canis familiaris [21]): 12%; FRP (Canis familiaris [22]): 13%; FRP (Canis familiaris [23]): 19%; No effective/ no. tested (Canis familiaris [33]): 4; No. effective (Canis familiaris [34]): 3
O=C(NC1CCN(Cc2ccccc2)CC1)c1ccc(-n2ccnc2)cc1	–	Minimal	Minimal	0.7 µM	–	75%	–	–	97%	–
CCN(CC)CCNC(=O)c1cccc(-n2ccnc2)c1.Cl.Cl	Minimal	Minimal	Minimal	4 µM	–	27%	–	50%	60%	–

More lines, main results first:

max Delta Vmax [3]	Delta Vmax [7]	max Delta Vmax [12]	SMILES	C20 APD95 (Canis familiaris [4])	Max delta APD95 (Canis familiaris [5])	Delta APD95 (Canis familiaris [6])	C20 APD95 (Canis familiaris [9])	Max delta APD95 (Canis familiaris [10])	Max delta APD95 (Canis familiaris [14])	other results
Minimal	–	–	CCN1CCCC1CNC(=O)c1ccc(-n2ccnc2)cc1.Cc1ccc(S(=O)(=O)O)cc1 (stereo not given)	3 µM	72%	39%	–	–	–	Delta Vmax [1]: -13%; max Delta Vmax [2]: -26%
–	Minimal	–	Cl.NCCNC(=O)c1ccc(-n2ccnc2)cc1	–	13%	1%	Not reached	10%	–	max Delta Vmax [8]: Minimal
Minimal	Minimal	–	CN1CCN(S(=O)(=O)c2ccc(-n3ccnc3)cc2)CC1	39 µM	–	9%	Not reached	24%	14%	max Delta Vmax [15]: -23%
–	Minimal	–	O=C(NC1CCNCC1)c1ccc(-n2ccnc2)cc1	–	–	5%	–	–	–	Max delta [12]: Minimal; C20 APD95 (Canis familiaris [26]): Not reached; Max delta APD95 (Canis familiaris [27]): 10%
–	Minimal	Minimal	CS(=O)(=O)O.O=C(c1ccc(-n2ccnc2)cc1)N1CCN(Cc2ccccc2)CC1	0.9 µM	–	46%	–	46%	–	–
–	Minimal	–	O=C(c1ccc(-n2ccnc2)cc1)N1CCNCC1	10.5 µM	–	17%	Not reached	–	28%	Max delta [12]: Minimal
–	Minimal	Minimal	CN1CCN(C(=O)c2ccc(-n3ccnc3)cc2)CC1.Cl.Cl	3.7 µM	–	32%	–	31%	55%	max Delta Vmax [29]: Minimal
